Drawing on US20080261994A1, “CYCLOPROPANE COMPOUNDS AND PHARMACEUTICAL USE THEREOF” (Japan Tobacco Inc., priority 2003, published 2008), this text covers IC50 for 28 compounds.

Structures are written as SMILES.

Format in all cases: biochemical
Assay [1] concerns the target T1, aggrecanase-1 (Homo sapiens, UniProt O75173).
T1 sequence (O75173 213-837): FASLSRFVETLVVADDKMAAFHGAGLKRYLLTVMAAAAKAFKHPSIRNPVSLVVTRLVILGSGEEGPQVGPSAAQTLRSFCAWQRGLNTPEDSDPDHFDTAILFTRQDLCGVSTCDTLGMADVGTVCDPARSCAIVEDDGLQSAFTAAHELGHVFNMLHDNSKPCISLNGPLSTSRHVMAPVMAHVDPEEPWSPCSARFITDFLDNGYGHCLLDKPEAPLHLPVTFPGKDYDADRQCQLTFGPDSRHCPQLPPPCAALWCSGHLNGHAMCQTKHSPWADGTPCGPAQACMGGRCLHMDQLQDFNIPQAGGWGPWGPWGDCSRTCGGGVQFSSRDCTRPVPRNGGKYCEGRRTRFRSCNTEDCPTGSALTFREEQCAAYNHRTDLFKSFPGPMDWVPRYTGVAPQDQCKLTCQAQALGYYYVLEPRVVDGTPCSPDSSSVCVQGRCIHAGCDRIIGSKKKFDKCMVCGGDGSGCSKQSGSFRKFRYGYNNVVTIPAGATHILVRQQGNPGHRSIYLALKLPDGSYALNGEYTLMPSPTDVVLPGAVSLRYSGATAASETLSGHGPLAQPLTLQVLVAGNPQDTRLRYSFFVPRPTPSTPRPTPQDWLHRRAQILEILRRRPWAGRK
In words: Aggrecanase-1 inhibitory action (Particle Assay, GAG release from aggrecan-containing polyacrylamide particles). Conditions: aggrecanase-1 inhibitory action; read-out: IC50 AG1 (Experimental Example 1). The protocol: Particle Assay was used for determination of aggrecanase activity.
(§1) The enzyme and substrate were diluted with Tris-HCl buffer, and test compounds were diluted with dimethyl sulfoxide (DMSO).
Test compounds and the enzyme were added into 96-well plate, and polyacrylamide particles containing aggrecan were added as a substrate and the mixture was incubated at 37° C. for 15 hr.
After incubation, the supernatant was transferred to another plate, and mixed with 1,9-dimethylmethylene blue. The absorbence at 595 nm was measured to quantify the amount of glycosaminoglycan (GAG) released in the reaction supernatant. Whale chondroitin sulfate was used as the standard of GAG. The inhibitory activity of the compound in each well (%) was calculated based on the values of enzyme-free well and inhibitor-free well. The inhibitory activity of the compound was represented as […] (μM).

The target of assay [2] is T2, MMP-1 (Homo sapiens, UniProt P03956).
T2 sequence (P03956 100-469): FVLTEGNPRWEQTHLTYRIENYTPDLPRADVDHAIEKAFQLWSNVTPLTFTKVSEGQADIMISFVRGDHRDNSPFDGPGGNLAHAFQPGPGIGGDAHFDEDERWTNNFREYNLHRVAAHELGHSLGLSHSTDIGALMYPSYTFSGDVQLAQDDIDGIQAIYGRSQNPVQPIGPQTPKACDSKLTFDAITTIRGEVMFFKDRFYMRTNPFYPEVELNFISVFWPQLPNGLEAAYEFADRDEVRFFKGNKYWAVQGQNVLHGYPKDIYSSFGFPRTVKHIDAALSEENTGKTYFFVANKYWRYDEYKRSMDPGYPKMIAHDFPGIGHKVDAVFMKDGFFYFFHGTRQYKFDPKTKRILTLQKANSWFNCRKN
In words: MMP-1 inhibitory action (Type I collagen Activity Measurement kit, FITC-labeled collagen type I). Conditions: MMP-1 inhibitory action, FITC-labeled collagen type I, 37° C. for 3 hr; read-out: IC50 MMP1 (Experimental Example 2). The protocol:
For MMP-1 Assay, Type I collagen Activity Measurement kit (YAGAI YU-72013) modified to a 96-well plate format was used.
The principle of the kit is based on the property of collagen that becomes soluble in ethanol after being cleaved by MMP-1.
as §1
The enzyme and test compounds were added into 96-well plate, and fluorescein isothiocianate (FITC)-labeled collagen type I was added as a substrate and the mixture was incubated at 37° C. for 3 hr.
The reaction was terminated by addition of Tris-HCl buffer containing ethanol. After centrifugation, the supernatant containing denatured substrate was transferred to another 96-well plate. The collagenase activity of MMP-1 was determined by measuring FITC fluorescence intensity (excitation wavelength 485 nm, emission wavelength 530 nm) of each well. The inhibitory activity of the compound in each well (%) was calculated based on the values of enzyme-free well and inhibitor-free well. The inhibitory activity of the compound was represented as IC50 (μM).

For assay [3], the target named is T3, Recombinant Human MMP-13 (Homo sapiens, UniProt P45452).
T3 construct: purchased R&D systems 511-MM
The experiment in a line: MMP-13 inhibitory activity (MMP-13 specific fluorescent substrate with quencher). Conditions: Recombinant Human MMP-13, fluorescent substrate, 25° C. for 1 h; read-out: IC50 MMP13 (Experimental Example 3). The method, then:
Inhibitory activity of tested compounds on MMP-13 was measured using MMP-13 specific fluorescent substrate with quencher.
as §1
Test compounds and the enzyme (Recombinant Human MMP-13: R&D systems, 511-MM) were added into 96-well plate. The reaction was initiated by adding synthetic substrate (7-MCA-Pro-CHA-Gly-NVal-His-Ala-DPA: enzyme systems products, Met-06) into the plate. After incubation at 25° C. for 1 h, the reaction was terminated by addition of reaction terminating solution containing acetic acid. Fluorescence intensity of each well was measured (Ex: 325 nm, […] 405 nm) and the MMP-13 inhibitory activity of the compound in each well (%) was calculated based on the values of enzyme-free well and inhibitor-free well. The inhibitory activity of the compound was represented as IC50 (μM).

`O=C(O)C1(NS(=O)(=O)c2ccc(-c3ccc(Cl)cc3)cc2)CC1c1cccc(NCc2cccnc2)c1` (stereo not drawn) [Example 1-3]: the IC50 was less than 100 nM in assay [1], no less than 1000 nM in assay [2] and less than 100 nM in assay [3].

For `O=C(O)C1(NS(=O)(=O)c2ccc(-c3ccc(Cl)cc3)cc2)CC1c1cccc(Oc2ccccc2)c1` (stereo not drawn) [Example 1-10], the IC50 in assay [1] was less than 1000 nM; in assay [2] it was no less than 1000 nM; in assay [3], less than 1000 nM.

As for `O=C(O)C1(NS(=O)(=O)c2ccc(-c3ccc(Cl)cc3)cc2)CC1c1cccc(Oc2ccc(Cl)cc2)c1` (stereo not drawn) [Example 1-11], the IC50 in assay [1] was less than 1000 nM; in assay [2], no less than 1000 nM; in assay [3], less than 1000 nM.

Turning to `COc1cccc(C2CC2(NS(=O)(=O)c2ccc(-c3ccc(Cl)cc3)cc2)C(=O)O)c1` (stereo not drawn) [Example 1-12], the figures for the IC50 in assay [1], in assay [2] and in assay [3] were less than 1000 nM, no less than 1000 nM and less than 100 nM, respectively.

Consider `O=C(O)C1(NS(=O)(=O)c2ccc(-c3ccc(Cl)cc3)cc2)CC1c1ccc(Oc2ccccc2)cc1` (stereo not drawn) [Example 1-16], for which the IC50 is less than 1000 nM in assay [1], no less than 1000 nM in assay [2] and less than 100 nM in assay [3].

Consider `Nc1cccc(C2CC2(NS(=O)(=O)c2ccc(-c3ccc(Cl)cc3)cc2)C(=O)O)c1` (stereo not drawn) [Example 1-18], for which the IC50 in assay [1] was less than 1000 nM; in assay [2] it was no less than 1000 nM; in assay [3], less than 100 nM.

As to `O=C(O)C1(NS(=O)(=O)c2ccc(-c3ccc(Cl)cc3)cc2)CC1c1cccc(-c2ccccc2)c1` (stereo not drawn) [Example 1-26], the figures for the IC50 in assay [1], in assay [2] and in assay [3] were less than 1000 nM, no less than 10000 nM and less than 1000 nM, respectively.

As to `CS(=O)(=O)Nc1cccc(C2CC2(NS(=O)(=O)c2ccc(-c3ccc(Cl)cc3)cc2)C(=O)O)c1` (stereo not drawn) [Example 1-38], the results for the IC50 in assay [1], in assay [2] and in assay [3] were less than 100 nM, no less than 10000 nM and less than 100 nM, respectively.

Turning to `CC(=O)Nc1cccc(C2CC2(NS(=O)(=O)c2ccc(-c3ccc(Cl)cc3)cc2)C(=O)O)c1` (stereo not drawn) [Example 1-40], the IC50 is less than 1000 nM in assay [1], no less than 1000 nM in assay [2] and less than 100 nM in assay [3].

As for `COC(=O)Nc1cccc(C2CC2(NS(=O)(=O)c2ccc(-c3ccc(Cl)cc3)cc2)C(=O)O)c1` (stereo not drawn) [Example 1-41], the IC50 is less than 1000 nM in assay [1], no less than 1000 nM in assay [2] and less than 100 nM in assay [3].

Regarding `O=C(O)C1(NS(=O)(=O)c2ccc(-c3ccc4c(c3)Cc3ccccc3-4)cc2)CC1c1ccccc1` (stereo not drawn) [Example 1-54], the IC50 in assay [1] is less than 1000 nM; in assay [2], no less than 1000 nM; in assay [3], less than 1000 nM.

On to `O=C(O)C1(NS(=O)(=O)c2ccc(-c3ccc(Cl)cc3)cc2)CC1c1cccc(Nc2ccccn2)c1` (stereo not drawn) [Example 1-61], for which the results for the IC50 in assay [1], in assay [2] and in assay [3] were less than 1000 nM, no less than 1000 nM and less than 100 nM, respectively.

For the compound `O=C(Nc1cccc(C2CC2(NS(=O)(=O)c2ccc(-c3ccc(Cl)cc3)cc2)C(=O)O)c1)c1ccccn1` (stereo not drawn) [Example 1-62], the IC50 in assay [1] was less than 1000 nM; in assay [2], no less than 1000 nM; in assay [3], less than 100 nM.

With `O=C(Nc1cccc(C2CC2(NS(=O)(=O)c2ccc(-c3ccc(Cl)cc3)cc2)C(=O)O)c1)c1ccncc1` (stereo not drawn) [Example 1-63], the IC50 was less than 1000 nM in assay [1], no less than 1000 nM in assay [2] and less than 100 nM in assay [3].

For the compound `O=C(Nc1cccc(C2CC2(NS(=O)(=O)c2ccc(-c3ccc(Cl)cc3)cc2)C(=O)O)c1)c1cccnc1` (stereo not drawn) [Example 1-64], the IC50 was less than 1000 nM in assay [1], no less than 1000 nM in assay [2] and less than 100 nM in assay [3].

Consider `O=C(O)C1(NS(=O)(=O)c2ccc(-c3ccc(Cl)cc3)cc2)CC1c1cccc(OCCO)c1` (stereo not drawn) [Example 1-66], for which the IC50 in assay [1] was less than 1000 nM; in assay [2], no less than 1000 nM; in assay [3], less than 100 nM.

On to `O=C(O)C1(NS(=O)(=O)c2ccc(-c3ccc(Cl)cc3)cc2)CC1c1cccc(Oc2cccnc2)c1` (stereo not drawn) [Example 1-68], for which the IC50 in assay [1] is less than 1000 nM; in assay [2], no less than 1000 nM; in assay [3], less than 100 nM.

Regarding `O=C(O)C1(NS(=O)(=O)c2ccc(-c3ccc(Cl)cc3)s2)CC1c1ccccc1` (stereo not drawn) [Example 1-69], the IC50 is less than 100 nM in assay [1], no less than 10000 nM in assay [2] and less than 1000 nM in assay [3].

On to `O=C(O)C1(NS(=O)(=O)c2ccc3c(c2)Cc2cc(Br)ccc2-3)CC1c1ccccc1` (stereo not drawn) [Example 1-72], for which the results for the IC50 in assay [1], in assay [2] and in assay [3] were less than 100 nM, no less than 1000 nM and less than 1000 nM, respectively.

As for `O=C(O)C1(NS(=O)(=O)c2ccc(-c3ccc(Cl)cc3)cc2)CC1c1cccc(OCCN2CCOCC2)c1` (stereo not drawn) [Example 1-74], the IC50 in assay [1] was less than 1000 nM; in assay [2] it was no less than 1000 nM; in assay [3], less than 100 nM.

Consider `O=C(O)C1(NS(=O)(=O)c2ccc(-c3ccc(Cl)cc3)cc2)CC1c1cccc(OCCn2cccn2)c1` (stereo not drawn) [Example 1-75], for which the figures for the IC50 in assay [1], in assay [2] and in assay [3] were less than 1000 nM, no less than 1000 nM and less than 100 nM, respectively.

`O=C(O)C1(NS(=O)(=O)c2ccc(-c3ccc(Cl)cc3)cc2)CC1c1cccc(OCc2cccnc2)c1` (stereo not drawn) [Example 1-76]: the IC50 in assay [1] is less than 1000 nM; in assay [2], no less than 10000 nM; in assay [3], less than 100 nM.

Turning to `O=C(O)C1(NS(=O)(=O)c2ccc(-c3ccc(Cl)cc3)cc2)CC1c1cccc(OCCn2ccnc2)c1` (stereo not drawn) [Example 1-83], the IC50 is less than 1000 nM in assay [1], no less than 1000 nM in assay [2] and less than 100 nM in assay [3].

As to `O=C(O)C1(NS(=O)(=O)c2ccc(-c3ccc(Cl)cc3)s2)CC1c1ccccc1OCc1ccccc1` (stereo not drawn) [Example 1-84], the IC50 is less than 1000 nM in assay [1], no less than 10000 nM in assay [2] and less than 1000 nM in assay [3].

With `O=C(O)[C@]1(NS(=O)(=O)c2ccc(-c3ccc(Cl)cc3)s2)C[C@@H]1c1ccccc1` [Example 1-85], the IC50 in assay [1] is less than 100 nM; in assay [2], no less than 1000 nM; in assay [3], less than 100 nM.

As for `O=C(O)C1(NS(=O)(=O)c2ccc(-c3ccc(Cl)cc3)s2)CC1c1cccc(OCCO)c1` (stereo not drawn) [Example 1-86], the IC50 in assay [1] is less than 1000 nM; in assay [2] it was no less than 1000 nM; in assay [3], less than 1000 nM.

On to `O=C(O)C1(NS(=O)(=O)c2ccc(-c3ccc(Cl)cc3)s2)CC1c1cccc(Oc2cccnc2)c1` (stereo not drawn) [Example 1-88], for which the values for the IC50 in assay [1], in assay [2] and in assay [3] were less than 100 nM, no less than 10000 nM and less than 1000 nM, respectively.

With `O=C(O)C1(NS(=O)(=O)c2ccc(-c3ccc(Cl)cc3)cc2)CC1c1cccc(NCc2cnc[nH]2)c1` (stereo not drawn) [Example 1-90], the IC50 in assay [1] is less than 1000 nM; in assay [2], no less than 1000 nM; in assay [3] it was less than 100 nM.

As usually defined, the IC50 is the concentration that gives 50% inhibition.
